“And” between values parts separate entries of the source, which are not always exact repeats. Equal entries are not always repeated. Inconclusive results and toxic doses are left out.
Tested on: BDF1 mice, B16 melanoma ip, median survival T/C
Experiment: NCI In Vivo Anticancer Drug Screen. Data for tumor model B16 Melanoma (intraperitoneal) in B6D2F1 (BDF1) mice
Settings: endpoint: median survival time, higher = longer survival
In short: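 Tumor-bearing mice received test compound or vehicle. Survival or tumor size was then measured in both groups. The treated-group figure was divided by the control-group figure.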

[1] = dose: 3.13 mg/kg/injection, schedule: Q01DX009 (ip), vehicle: water
[2] = dose: 12.5 mg/kg/injection, schedule: Q01DX009 (ip), vehicle: water
[3] = dose: 6.25 mg/kg/injection, schedule: Q01DX009 (ip), vehicle: saline with Tween-80
[4] = dose: 12.5 mg/kg/injection, schedule: Q01DX009 (ip), vehicle: saline with Tween-80
[5] = dose: 25.0 mg/kg/injection, schedule: Q01DX009 (ip), vehicle: saline with Tween-80
[6] = dose: 50.0 mg/kg/injection, schedule: Q01DX009 (ip), vehicle: saline with Tween-80
[7] = dose: 1.56 mg/kg/injection, schedule: Q01DX009 (ip), vehicle: Klucel (hydroxypropylcellulose) (HPC)
[8] = dose: 3.12 mg/kg/injection, schedule: Q01DX009 (ip), vehicle: Klucel (hydroxypropylcellulose) (HPC)
[9] = dose: 25.0 mg/kg/injection, schedule: Q01DX009 (ip), vehicle: Klucel (hydroxypropylcellulose) (HPC)
[10] = dose: 50.0 mg/kg/injection, schedule: Q01DX009 (ip), vehicle: Klucel (hydroxypropylcellulose) (HPC)
[11] = dose: 100.0 mg/kg/injection, schedule: Q01DX009 (ip), vehicle: Klucel (hydroxypropylcellulose) (HPC)
[12] = dose: 100.0 mg/kg/injection, schedule: Q01DX009 (ip), vehicle: saline
[13] = dose: 200.0 mg/kg/injection, schedule: Q01DX009 (ip), vehicle: saline
[14] = dose: 12.5 mg/kg/injection, schedule: Q01DX009 (ip), vehicle: Klucel (hydroxypropylcellulose) (HPC)
[15] = dose: 100.0 mg/kg/injection, schedule: Q04DX003 (ip), vehicle: Klucel (hydroxypropylcellulose) (HPC)
[16] = dose: 200.0 mg/kg/injection, schedule: Q04DX003 (ip), vehicle: Klucel (hydroxypropylcellulose) (HPC)

COc1cccc2c1C(=O)c1c(O)c3c(c(O)c1C2=O)C[C@@](O)(C(=O)CN1CCOCC1)C[C@@H]3OC1CC(N)C(O)C(C)O1 (stereo partly specified)
T/C [1]: 159 % of control | T/C (dose: 6.25 mg/kg/injection, schedule: Q01DX009 (ip), vehicle: water): 153 % of control | T/C [2]: 157 % of control | T/C (dose: 25.0 mg/kg/injection, schedule: Q01DX009 (ip), vehicle: water): 157 % of control

CCCCCC/C=C\C(=O)O
T/C [3]: 94 % of control and 95 % of control | T/C [4]: 93 % of control and 104 % of control | T/C [5]: 93 % of control and 98 % of control | T/C [6]: 88 % of control

NN1C(=O)c2ccc3c4c(ccc(c24)C1=O)CC3
T/C (dose: 50.0 mg/kg/injection, schedule: Q01DX009 (ip), vehicle: suspension in saline): 104 % of control | T/C (dose: 100.0 mg/kg/injection, schedule: Q01DX009 (ip), vehicle: suspension in saline): 102 % of control | T/C (dose: 200.0 mg/kg/injection, schedule: Q01DX009 (ip), vehicle: suspension in saline): 97 % of control | T/C (dose: 400.0 mg/kg/injection, schedule: Q01DX009 (ip), vehicle: suspension in saline): 102 % of control

NNC(=O)c1ccccc1O
T/C [5]: 100 % of control | T/C [6]: 95 % of control | T/C (dose: 100.0 mg/kg/injection, schedule: Q01DX009 (ip), vehicle: saline with Tween-80): 95 % of control

CC(=O)c1cccc(NC2C(N)C(NC(=O)N(C)C)(C(C)O)C(C)(O)C2(O)COC(=O)c2c(C)cccc2O)c1 (stereo unspecified)
T/C (dose: 0.3 mg/kg/injection, schedule: Q01DX009 (ip), vehicle: saline with Tween-80): 115 % of control | T/C (dose: 0.3 mg/kg/injection, schedule: Q01DX009 (ip), vehicle: saline): 113 % of control | T/C (dose: 0.5 mg/kg/injection, schedule: Q01DX009 (ip), vehicle: Klucel (hydroxypropylcellulose) (HPC)): 116 % of control | T/C (dose: 0.6 mg/kg/injection, schedule: Q01DX009 (ip), vehicle: saline): 113 % of control | T/C (dose: 1.0 mg/kg/injection, schedule: Q01DX009 (ip), vehicle: Klucel (hydroxypropylcellulose) (HPC)): 113 % of control | T/C (dose: 1.2 mg/kg/injection, schedule: Q01DX009 (ip), vehicle: saline): 122 % of control

COC12C(COC(=O)NCCO)C3=C(C(=O)C(C)=C(N)C3=O)N1CC1NC12 (stereo unspecified)
T/C [7]: 98 % of control | T/C [8]: 116 % of control and 120 % of control and 124 % of control | T/C (dose: 6.25 mg/kg/injection, schedule: Q01DX009 (ip), vehicle: saline): 119 % of control | T/C [9]: 88 % of control and 180 % of control and 209 % of control | T/C (dose: 25.0 mg/kg/injection, schedule: Q01DX009 (ip), vehicle: saline): 94 % of control

CC(=N\O)/C(C)=N/O.CC(=N\O)/C(C)=N/O.CC(=N\O)/C(C)=N/O.CC(=N\O)/C(C)=N/O.[Cu].[Cu]
T/C (dose: 0.78 mg/kg/injection, schedule: Q01DX009 (ip), vehicle: Klucel (hydroxypropylcellulose) (HPC)): 93 % of control | T/C [7]: 103 % of control | T/C (dose: 3.13 mg/kg/injection, schedule: Q01DX009 (ip), vehicle: Klucel (hydroxypropylcellulose) (HPC)): 103 % of control

CCNc1nc(NC(C)C)nc(OC)n1
T/C [3]: 113 % of control | T/C [4]: 108 % of control | T/C [5]: 110 % of control

COc1cccc2c1C(=O)c1c(O)c3c(c(O)c1C2=O)CC(O)(C(C)=O)CC3OC1CC(NC(=O)C(CCCCN)NC(=O)C2CCCN2)C(O)C(C)O1 (stereo unspecified)
T/C (dose: 10.0 mg/kg/injection, schedule: Q01DX001 (ip), vehicle: water): 117 % of control | T/C (dose: 20.0 mg/kg/injection, schedule: Q01DX001 (ip), vehicle: water): 123 % of control | T/C (dose: 40.0 mg/kg/injection, schedule: Q01DX001 (ip), vehicle: water): 158 % of control | T/C (dose: 80.0 mg/kg/injection, schedule: Q01DX001 (ip), vehicle: water): 191 % of control

COc1cc2cc(c1Cl)N(C)C(=O)CC(OC(=O)C(C)N(C)C(=O)C(C)C)C1(C)OC1C(C)C1CC(O)(NC(=O)O1)C(OC)/C=C/C=C(C)C2 (stereo unspecified)
T/C (dose: 5.0 micrograms/kg/injection, schedule: Q01DX009 (ip), vehicle: saline + alcohol): 171 % of control | T/C (dose: 10.0 micrograms/kg/injection, schedule: Q01DX009 (ip), vehicle: saline + alcohol): 177 % of control

CC[C@H]1CN2CCc3cc(OC)c(OC)cc3[C@@H]2C[C@@H]1C[C@H]1NCCc2cc(OC)c(OC)cc21
T/C (dose: 0.87 mg/kg/injection, schedule: Q01DX009 (ip), vehicle: saline): 103 % of control and 104 % of control | T/C (dose: 1.75 mg/kg/injection, schedule: Q01DX009 (ip), vehicle: saline): 100 % of control and 103 % of control | T/C (dose: 3.5 mg/kg/injection, schedule: Q01DX009 (ip), vehicle: saline): 105 % of control and 111 % of control | T/C (dose: 7.0 mg/kg/injection, schedule: Q01DX009 (ip), vehicle: saline): 116 % of control | T/C (dose: 7.8 mg/kg/injection, schedule: Q04DX003 (ip), vehicle: saline): 108 % of control | T/C (dose: 11.2 mg/kg/injection, schedule: Q04DX003 (ip), vehicle: saline): 98 % of control | T/C (dose: 16.0 mg/kg/injection, schedule: Q04DX003 (ip), vehicle: saline): 107 % of control | T/C (dose: 22.9 mg/kg/injection, schedule: Q04DX003 (ip), vehicle: saline): 104 % of control

CC(C)(C)CC(N)=O
T/C [10]: 112 % of control | T/C [11]: 100 % of control | T/C [12]: 107 % of control | T/C (dose: 200.0 mg/kg/injection, schedule: Q01DX009 (ip), vehicle: Klucel (hydroxypropylcellulose) (HPC)): 105 % of control | T/C [13]: 123 % of control | T/C (dose: 400.0 mg/kg/injection, schedule: Q01DX009 (ip), vehicle: Klucel (hydroxypropylcellulose) (HPC)): 105 % of control | T/C (dose: 400.0 mg/kg/injection, schedule: Q01DX009 (ip), vehicle: saline): 107 % of control

COc1cccc2c1C(=O)c1c(O)c3c(c(O)c1C2=O)C[C@@](O)(/C(C)=N\O)C[C@@H]3OC1CC(N)C(O)C(C)O1 (stereo partly specified)
T/C [1]: 115 % of control | T/C (dose: 6.25 mg/kg/injection, schedule: Q01DX001 (ip), vehicle: water): 91 % of control | T/C (dose: 12.5 mg/kg/injection, schedule: Q01DX001 (ip), vehicle: water): 213 % of control | T/C [2]: 187 % of control | T/C (dose: 25.0 mg/kg/injection, schedule: Q01DX001 (ip), vehicle: water): 207 % of control | T/C (dose: 50.0 mg/kg/injection, schedule: Q01DX001 (ip), vehicle: water): 158 % of control

Nc1cc(NC(=O)c2ccc(Cl)cc2)ccc1S(=O)(=O)O
T/C [8]: 94 % of control | T/C (dose: 6.25 mg/kg/injection, schedule: Q01DX009 (ip), vehicle: Klucel (hydroxypropylcellulose) (HPC)): 99 % of control | T/C [14]: 96 % of control | T/C [9]: 98 % of control | T/C [10]: 98 % of control

COc1cc(C(=O)O)c(Br)cc1C
T/C [15]: 105 % of control | T/C [16]: 97 % of control

COC(=O)c1cc(Cl)ccc1OCC(=O)Nc1ccc([N+](=O)[O-])cc1
T/C [10]: 100 % of control | T/C [11]: 100 % of control

CCOC(=O)c1cnc(SC)nc1Nc1c(Br)cc(Br)cc1Br
T/C [14]: 106 % of control | T/C [9]: 109 % of control | T/C [10]: 106 % of control

Cc1cc(C)cc(OC(=O)Nc2ccccc2Cl)c1
T/C [15]: 96 % of control | T/C [16]: 96 % of control | T/C (dose: 400.0 mg/kg/injection, schedule: Q04DX003 (ip), vehicle: Klucel (hydroxypropylcellulose) (HPC)): 106 % of control

CNC(=O)Oc1ccc2c(c1)OCO2
T/C (dose: 50.0 mg/kg/injection, schedule: Q01DX009 (ip), vehicle: saline): 95 % of control | T/C [12]: 114 % of control | T/C [13]: 107 % of control

Cc1cc2oc(=O)c3c(c2c(O)c1CN1CCOCC1)CCCC3
T/C (dose: 64.0 mg/kg/injection, schedule: Q01DX009 (ip), vehicle: Klucel (hydroxypropylcellulose) (HPC)): 103 % of control | T/C (dose: 128.0 mg/kg/injection, schedule: Q01DX009 (ip), vehicle: Klucel (hydroxypropylcellulose) (HPC)): 98 % of control | T/C (dose: 256.0 mg/kg/injection, schedule: Q01DX009 (ip), vehicle: Klucel (hydroxypropylcellulose) (HPC)): 108 % of control

CCCCC1(CC)COC(C)(c2ccccc2)OC1 (stereo unspecified)
T/C (dose: 75.0 mg/kg/injection, schedule: Q01DX009 (ip), vehicle: saline with Tween-80): 108 % of control | T/C (dose: 150.0 mg/kg/injection, schedule: Q01DX009 (ip), vehicle: saline with Tween-80): 106 % of control | T/C (dose: 300.0 mg/kg/injection, schedule: Q01DX009 (ip), vehicle: saline with Tween-80): 98 % of control

CC(=N\O)/C(C)=N/O.CC(=N\O)/C(C)=N/O.CC(=N\O)/C(C)=N/O.CC(=N\O)/C(C)=N/O.[CH3-].[CH3-].[Co].[Co]
T/C [9]: 107 % of control | T/C [10]: 90 % of control | T/C [11]: 100 % of control
